Literature values in the CATMoS acute toxicity set (Mansouri et al. 2021).
Where “and” joins values, the source holds several entries; their conditions need not be identical. Identical values can stand only once.

assay: rat acute oral toxicity; conditions: in vivo
From the text: […]The data set underlying the modeling effort for this project was initially compiled by NICEATM and U.S. EPA’s CCTE. Briefly, LD50 data were collected from rat acute oral systemic toxicity tests, including limit tests, ranges/confidence intervals, and discrete LD50 values. The full data set included 21,200 LD50 entries for 15,688 substances. […] Data were reviewed to ensure that LD50 values with obvious errors in the extracted data such as unit conversion errors (e.g., comma and decimal separator misplacements) were either fixed or removed. After this review, 16,209 LD50 values remained. Many of the chemicals represented had multiple LD50 entries, requiring that a single representative value per Chemical Abstracts Service Registry Number (CASRN) identifier be defined to facilitate modeling efforts. Based on ATWG feedback and to define the representative LD50 as a protective value while accounting for the distribution across multiple LD50s, the median of the lowest quartile was computed using only discrete LD50 values (omitting limit test data and range and confidence interval data). A detailed summary of the data compilation is available online on the NICEATM webpage dedicated to the collaborative modeling project (NTP 2020).
[…][…] For categorical designations, limit test and range/confidence interval LD50 data were integrated wherever possible. As such, the number of chemicals with end point values/calls varies across the modeling end points (Table 3) based on whether chemicals had representative LD50 values and/or other data. If a chemical had both, the representative value was used to determine categorical calls rather than limit test data. Some data were useable only for certain end points and categories depending on the thresholds. For example, ranges that spanned multiple hazard categories were considered only for the binary (very toxic/nontoxic) end points and omitted from rendering a determination for hazard category assignment.
[…]The final data set comprising 11,992 chemicals was split into training and evaluation sets […], respectively. This process was performed semirandomly by ordering chemicals based on the five end points (categorical and continuous LD50 values) and partitioning every fourth record into the evaluation set accordingly. This approach was taken to ensure an equivalent distribution of the LD50 values and the different hazard categories between the training and the evaluation sets without supervised sampling of the chemicals based on structures (Figure 1A). The sources of the chemical structures were also kept equivalent between the two sets, with chemical structures obtained from DSSTox, being the highest quality, representing over 75% of each set (Figure 1B).

Point of comparison: `CC(=O)OC1=C(c2c(C)cc(C)cc2C)C(=O)c2ccccc21`, LD50 8000 mg/kg. Against it:
- CC(NCCNC(C)c1ccccc1)c1ccccc1 (stereo not given) — 6.2-fold lower, 1290 mg/kg
- O=C(CS)OCCCCOC(=O)CS — 20-fold lower, 405 mg/kg
- OCC(Br)C(Br)CO (stereo not given) — 3.3-fold lower, 2460 mg/kg
- Cc1ncc(CO)c(CN)c1O — within 1.5-fold, 7500 mg/kg
- O=C(c1ccccc1)N1CCN=C1Nc1c(Cl)cccc1Cl — 120-fold lower, 68.1 mg/kg
- O=C(OCC(COC(=O)c1ccccc1)(COC(=O)c1ccccc1)COC(=O)c1ccccc1)c1ccccc1 — 6.9-fold lower, 1160 mg/kg
- CO[C@@]1(NC(=O)CSCC#N)C(=O)N2C(C(=O)O)=C(CSc3nnnn3C)CS[C@@H]21 — 2.5-fold lower, 3200 mg/kg
- N#Cc1c(Cl)cccc1Cl — 3-fold lower, 2710 mg/kg
- CNC(=O)Oc1ccc(Cl)c2c1OC(C)(C)C2 — 32-fold lower, 248 mg/kg
- O=C(O)Cc1ccc2c(c1)OCc1ccccc1C2=O — 73-fold lower, 110 mg/kg
- NC(=O)C(c1ccccc1)c1ccccc1 — 13-fold lower, 600 mg/kg
- CC(=O)Nc1ccc(N=NN(C)C)cc1 — 16-fold lower, 510 mg/kg
- CCC(C)c1ccc(Cl)c(OC(=O)NC)c1 (stereo not given) — 160-fold lower, 50 mg/kg
- Cc1ccc(S(=O)(=O)NC(=O)NN2CC3CCCC3C2)cc1 (stereo not given) — 2.7-fold lower, 3000 mg/kg
- O=C1C(=O)c2ncccc2-c2cccnc21 — 1600-fold lower, 5 mg/kg
- C=C(C)C(=O)OCCO — within 1.5-fold, 5620 mg/kg
- CCN1CN(CO)C(=O)N(CO)C1 — within 1.5-fold, 8220 mg/kg
- O=C(O)c1c(Cl)ccc(Cl)c1Cl — 4.9-fold lower, 1640 mg/kg
- CC1=CC(=O)OC1=O — 3.1-fold lower, 2600 mg/kg
- CCNC(C)c1ccccc1 (stereo not given) — 22-fold lower, 360 mg/kg
- FC(F)(F)C(F)(Br)Br — 6.8-fold higher, 54600 mg/kg
- CCCCCOC(=S)S — 8-fold lower, 1000 mg/kg
- Nc1c([N+](=O)[O-])cc(Cl)cc1[N+](=O)[O-] — 20-fold lower, 400 mg/kg
- NCCC=C1c2ccccc2COc2ccccc21 — 8.3-fold lower, 960 mg/kg
- CNC(=S)S — 74-fold lower, 108 mg/kg
- CCOC(=O)N(C)CC1CCN(c2nc(N)c3cc(OC)c(OC)cc3n2)CC1 — 12-fold lower, 660 mg/kg
- CCCN1CCCC1=Nc1ccc(Cl)c(Cl)c1 — 3.8-fold lower, 2120 mg/kg
- CNC(=S)NCCSCc1nc[nH]c1C — 5.4-fold lower, 1490 mg/kg
- CN(C)C(=O)NC1CCC2C3CCC(C3)C12 (stereo not given) — 5-fold lower, 1600 mg/kg
- CCCCCCCC/C=C\CCCCCCCC[N+](C)(C)CC — 16-fold lower, 500 mg/kg
- Cc1cc(C)c(C)cc1C — within 1.5-fold, 6990 mg/kg
- COS(=O)(=O)c1ccc(C)cc1 — 23-fold lower, 341 mg/kg
- CC1(C)C(C=NOCc2ccco2)C1C(=O)OC(C#N)c1cccc(Oc2ccccc2)c1 (stereo not given) — 88-fold lower, 91 mg/kg
- O=NN(CCCl)C(O)=NC1C[C@H]2CC[C@@H]1C2 (stereo not given in full) — 96-fold lower, 83 mg/kg
- CCCCCCCCCCCC(=O)NP(=O)(OC)SC (stereo not given) — 80-fold lower, 100 mg/kg
- Cc1ccc(C2(O)CCN(CCCC(=O)c3ccc(F)cc3)CC2)cc1 — 53-fold lower, 152 mg/kg
- CCOC(O)C(Cl)(Cl)Cl (stereo not given) — 9.1-fold lower, 880 mg/kg
- Nc1ccc(Br)cc1 — 18-fold lower, 456 mg/kg
- O=C(NNC1OC(C(=O)O)C(O)C(O)C1O)c1ccncc1 (stereo not given) — 2.5-fold higher, 20300 mg/kg
- CCCCOC(=O)CCCOc1ccc(Cl)cc1Cl — 27-fold lower, 300 mg/kg
- CC12CCC3(CCCC(C)(C)C3C1)OC2=O (stereo not given) — 5-fold lower, 1600 mg/kg
- CCCc1ccc(C=O)cc1 — 5-fold lower, 1600 mg/kg
- Cc1c(C)c2c(c(C)c1O)CCC(C)(C(=O)O)O2 (stereo not given) — 1.9-fold lower, 4300 mg/kg
- CN(C)CCCC1c2ccccc2Nc2ccc(Cl)cc21 (stereo not given) — 21-fold lower, 379 mg/kg
- O=C(O)CNC(=O)c1ccc(Cl)cc1 — 3.6-fold lower, 2230 mg/kg
- N#CCCC1(CCC#N)c2ccccc2-c2ccccc21 — 3.7-fold lower, 2180 mg/kg
- CNC(=O)Oc1ccc(NC(=O)C(F)(F)Cl)c(C)c1 — 160-fold lower, 48.5 mg/kg
- O=C(O)c1ccccc1C(=O)Nc1ccccc1 — within 1.5-fold, 8840 mg/kg
- CN(C)C(=S)N(C)C — 8.7-fold lower, 920 mg/kg
- CC1(C)C(C=C(Br)Br)C1C(=O)OC(C#N)c1cccc(Oc2ccccc2)c1 (stereo not given) — 100-fold lower, 80 mg/kg
- Nc1ccc(I)cc1 — 15-fold lower, 523 mg/kg
- CC(C)COCC(C)O (stereo not given) — 1.9-fold lower, 4290 mg/kg
- CCNc1nc(NCC)nc(SC)n1 — 11-fold lower, 750 mg/kg
- COc1nc(C)nc(NC(=O)NS(=O)(=O)c2ccccc2Cl)n1 — within 1.5-fold, 9370 mg/kg
- CN(CCCCCCN(C)C(=O)Oc1ccc[n+](C)c1)C(=O)Oc1ccc[n+](C)c1 — 800-fold lower, 10 mg/kg
- COC(=O)CC(=O)OC — 1.5-fold lower, 5330 mg/kg
- CN1CCC2(C)c3cc(OC(=O)NCCCCCCCCN4CCSCC4)ccc3N(C)C12 (stereo not given) — 340-fold lower, 23.8 mg/kg
- OC(c1ccccc1)(c1ccccc1)C1CCCCN1 (stereo not given) — 44-fold lower, 180 mg/kg

In the case of `CCOc1ccc(Cc2nc(C)cc3cc(OC)c(OC)cc23)cc1OC`, the LD50 is listed as 1960 mg/kg and 2070 mg/kg.
